Results: ChEMBL document CHEMBL1201862, “PubChem BioAssay data set” (2004)
Calls of active or inactive are those of the source.

Columns and labels:
Format in all cases: functional
[1] = target: Dual specificity protein kinase CLK2 (Homo sapiens, UniProt P49760)
[2] = target: Proto-oncogene tyrosine-protein kinase receptor Ret (Homo sapiens, UniProt P07949);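 further: measured within a kinome-wide profiling panel, RET as the panel member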
[3] = target: cAMP-dependent protein kinase catalytic subunit alpha (Homo sapiens, UniProt P17612)
[4] = target: Aurora kinase B (Homo sapiens, UniProt Q96GD4)
Aurora kinase B, sequence (Q96GD4 whole entry): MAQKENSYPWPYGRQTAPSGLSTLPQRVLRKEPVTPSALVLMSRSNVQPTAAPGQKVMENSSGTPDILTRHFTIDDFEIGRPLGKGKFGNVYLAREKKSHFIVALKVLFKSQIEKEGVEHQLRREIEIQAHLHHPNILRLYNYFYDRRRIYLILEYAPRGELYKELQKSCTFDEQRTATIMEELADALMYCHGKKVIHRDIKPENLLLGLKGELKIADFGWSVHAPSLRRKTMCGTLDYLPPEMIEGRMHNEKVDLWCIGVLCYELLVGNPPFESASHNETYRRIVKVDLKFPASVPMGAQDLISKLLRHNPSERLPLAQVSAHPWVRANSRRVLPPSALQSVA

[5] = target: Dual specificity mitogen-activated protein kinase kinase 2 (Homo sapiens, UniProt P36507); assay: Navigating the Kinome. Panel member name: MAP2K2
[6] = target: Serine/threonine-protein kinase TAO1 (Homo sapiens, UniProt Q7L7X3)
[7] = target: Protein kinase C theta type (Homo sapiens, UniProt Q04759); assay: Navigating the Kinome. Panel member name: PRKCQ
[8] = target: Mitogen-activated protein kinase 9 (Homo sapiens, UniProt P45984);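 further: value from a kinome panel profiling assay, MAPK9 panel entry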
Mitogen-activated protein kinase 9, sequence (P45984 whole entry): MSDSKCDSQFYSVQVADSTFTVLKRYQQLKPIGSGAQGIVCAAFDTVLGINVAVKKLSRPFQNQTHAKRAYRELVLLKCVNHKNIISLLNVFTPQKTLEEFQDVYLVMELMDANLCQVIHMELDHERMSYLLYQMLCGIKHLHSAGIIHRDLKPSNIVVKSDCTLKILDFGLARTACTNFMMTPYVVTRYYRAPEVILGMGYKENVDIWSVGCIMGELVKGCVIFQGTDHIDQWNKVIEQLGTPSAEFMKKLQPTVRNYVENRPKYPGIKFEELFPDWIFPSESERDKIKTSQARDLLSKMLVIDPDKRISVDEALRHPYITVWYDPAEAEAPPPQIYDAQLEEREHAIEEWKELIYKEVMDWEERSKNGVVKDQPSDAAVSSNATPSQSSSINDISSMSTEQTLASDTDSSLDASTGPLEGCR

[9] = target: 5'-AMP-activated protein kinase catalytic subunit alpha-1 (Homo sapiens, UniProt Q13131)
[10] = target: Serine/threonine-protein kinase pim-1 (Homo sapiens, UniProt P11309)
Serine/threonine-protein kinase pim-1, sequence (P11309 whole entry): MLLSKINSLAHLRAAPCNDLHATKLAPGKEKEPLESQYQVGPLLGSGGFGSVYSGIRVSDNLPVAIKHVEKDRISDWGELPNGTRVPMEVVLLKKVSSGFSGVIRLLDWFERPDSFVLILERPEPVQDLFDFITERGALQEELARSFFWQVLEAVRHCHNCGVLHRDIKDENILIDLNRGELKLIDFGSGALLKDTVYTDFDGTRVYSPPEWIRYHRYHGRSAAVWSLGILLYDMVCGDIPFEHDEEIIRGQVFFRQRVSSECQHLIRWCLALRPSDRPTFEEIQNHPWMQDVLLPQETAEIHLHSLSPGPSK

[11] = target: Rho-associated protein kinase 1 (Homo sapiens, UniProt Q13464);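 further: measured within a broad kinome-wide panel profiling many kinases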
[12] = target: Glycogen synthase kinase-3 beta (Homo sapiens, UniProt P49841);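 further: value comes from a broad kinome profiling panel, with GSK3B as the panel member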
[13] = target: Inhibitor of nuclear factor kappa-B kinase subunit epsilon (Homo sapiens, UniProt Q14164); assay: Navigating the Kinome. Panel member name: IKBKE
[14] = target: Mitogen-activated protein kinase kinase kinase kinase 2 (Homo sapiens, UniProt Q12851);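 further: measured as one member of a kinome-wide kinase panel, with MAP4K2 as the panel entry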
Mitogen-activated protein kinase kinase kinase kinase 2, sequence (Q12851 whole entry): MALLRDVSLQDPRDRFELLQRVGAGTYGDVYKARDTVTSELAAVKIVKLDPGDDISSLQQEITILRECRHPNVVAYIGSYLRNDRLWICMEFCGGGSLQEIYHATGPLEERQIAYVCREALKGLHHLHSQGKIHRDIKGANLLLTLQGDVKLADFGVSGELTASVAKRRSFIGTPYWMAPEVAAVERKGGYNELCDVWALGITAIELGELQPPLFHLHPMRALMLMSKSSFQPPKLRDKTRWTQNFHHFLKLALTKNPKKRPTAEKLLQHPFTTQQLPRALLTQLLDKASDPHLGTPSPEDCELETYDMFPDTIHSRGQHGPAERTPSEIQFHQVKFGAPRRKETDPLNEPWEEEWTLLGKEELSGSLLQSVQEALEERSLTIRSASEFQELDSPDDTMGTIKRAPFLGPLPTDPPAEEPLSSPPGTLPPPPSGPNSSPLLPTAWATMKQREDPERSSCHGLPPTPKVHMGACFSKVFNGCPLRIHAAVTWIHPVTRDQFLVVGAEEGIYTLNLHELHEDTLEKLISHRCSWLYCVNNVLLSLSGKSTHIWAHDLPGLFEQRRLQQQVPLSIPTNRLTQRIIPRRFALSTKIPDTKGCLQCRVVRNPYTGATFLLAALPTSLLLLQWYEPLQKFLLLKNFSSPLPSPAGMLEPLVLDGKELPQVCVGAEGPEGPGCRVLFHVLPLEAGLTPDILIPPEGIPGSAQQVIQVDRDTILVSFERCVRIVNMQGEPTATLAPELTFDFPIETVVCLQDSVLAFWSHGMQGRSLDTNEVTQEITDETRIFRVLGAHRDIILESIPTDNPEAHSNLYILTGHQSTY

[15] = target: High affinity nerve growth factor receptor (Homo sapiens, UniProt P04629);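 further: NTRK1 tested as one member of a kinome-wide profiling panel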
[16] = target: Death-associated protein kinase 3 (Homo sapiens, UniProt O43293);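 further: measured as one member of a kinome-wide profiling panel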
[17] = target: Macrophage-stimulating protein receptor (Homo sapiens, UniProt Q04912); assay: Navigating the Kinome. Panel member name: MST1R
[18] = target: Cyclin-dependent kinase 5 (Homo sapiens, UniProt Q00535);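 further: CDK5 measured as one member of a kinase profiling panel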
[19] = target: LIM domain kinase 1 (Homo sapiens, UniProt P53667); assay: Navigating the Kinome. Panel member name: LIMK1
[20] = target: Vascular endothelial growth factor receptor 1 (Homo sapiens, UniProt P17948);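 further: measured within a kinome-wide profiling panel, FLT1 as the panel member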
[21] = target: Leucine-rich repeat serine/threonine-protein kinase 2 (Homo sapiens, UniProt Q5S007);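 further: value from a broad kinome-wide panel profiling study in which LRRK2 was one of the kinases tested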
[22] = target: cAMP-dependent protein kinase catalytic subunit PRKX (Homo sapiens, UniProt P51817)
[23] = target: Insulin-like growth factor 1 receptor (Homo sapiens, UniProt P08069); assay: Navigating the Kinome. Panel member name: IGF1R
[24] = target: Dual specificity tyrosine-phosphorylation-regulated kinase 1A (Homo sapiens, UniProt Q13627);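 further: measured against DYRK1A as one member of a broad kinome profiling panel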
[25] = target: Cyclin-dependent kinase 9 (Homo sapiens, UniProt P50750);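 further: value from the CDK9 entry of a kinome-spanning kinase panel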
[26] = target: Platelet-derived growth factor receptor alpha (Homo sapiens, UniProt P16234); assay: Navigating the Kinome. Panel member name: PDGFRA
[27] = target: Macrophage colony-stimulating factor 1 receptor (Homo sapiens, UniProt P07333);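 further: value comes from the Navigating the Kinome screening panel, CSF1R member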
[28] = target: Glycogen synthase kinase-3 alpha (Homo sapiens, UniProt P49840);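 further: GSK3A result taken from a broad kinome-wide kinase panel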
Glycogen synthase kinase-3 alpha, sequence (P49840 whole entry): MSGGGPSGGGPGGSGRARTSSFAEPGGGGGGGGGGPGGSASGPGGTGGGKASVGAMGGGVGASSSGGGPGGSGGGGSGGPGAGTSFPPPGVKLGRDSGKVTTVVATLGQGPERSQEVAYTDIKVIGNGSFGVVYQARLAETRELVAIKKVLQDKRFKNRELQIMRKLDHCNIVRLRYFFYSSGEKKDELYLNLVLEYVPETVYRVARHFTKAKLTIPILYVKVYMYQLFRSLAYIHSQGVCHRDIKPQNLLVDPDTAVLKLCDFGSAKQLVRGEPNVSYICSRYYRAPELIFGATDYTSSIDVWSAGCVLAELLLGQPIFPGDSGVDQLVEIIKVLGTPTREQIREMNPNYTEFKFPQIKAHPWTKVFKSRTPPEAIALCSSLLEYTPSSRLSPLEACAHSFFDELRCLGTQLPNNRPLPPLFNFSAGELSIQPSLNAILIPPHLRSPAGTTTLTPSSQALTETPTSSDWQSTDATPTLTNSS

[29] = target: Aurora kinase A (Homo sapiens, UniProt O14965);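 further: value from the Navigating the Kinome kinase panel profiling, panel entry STK6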
[30] = target: Dual specificity tyrosine-phosphorylation-regulated kinase 1B (Homo sapiens, UniProt Q9Y463); assay: Navigating the Kinome. Panel member name: DYRK1B
[31] = target: Receptor-type tyrosine-protein kinase FLT3 (Homo sapiens, UniProt P36888);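 further: FLT3 was tested as one member of a kinome-wide kinase panel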
[32] = target: Activin receptor type-1 (Homo sapiens, UniProt Q04771); assay: Navigating the Kinome. Panel member name: ACVR1
Activin receptor type-1, sequence (Q04771 whole entry): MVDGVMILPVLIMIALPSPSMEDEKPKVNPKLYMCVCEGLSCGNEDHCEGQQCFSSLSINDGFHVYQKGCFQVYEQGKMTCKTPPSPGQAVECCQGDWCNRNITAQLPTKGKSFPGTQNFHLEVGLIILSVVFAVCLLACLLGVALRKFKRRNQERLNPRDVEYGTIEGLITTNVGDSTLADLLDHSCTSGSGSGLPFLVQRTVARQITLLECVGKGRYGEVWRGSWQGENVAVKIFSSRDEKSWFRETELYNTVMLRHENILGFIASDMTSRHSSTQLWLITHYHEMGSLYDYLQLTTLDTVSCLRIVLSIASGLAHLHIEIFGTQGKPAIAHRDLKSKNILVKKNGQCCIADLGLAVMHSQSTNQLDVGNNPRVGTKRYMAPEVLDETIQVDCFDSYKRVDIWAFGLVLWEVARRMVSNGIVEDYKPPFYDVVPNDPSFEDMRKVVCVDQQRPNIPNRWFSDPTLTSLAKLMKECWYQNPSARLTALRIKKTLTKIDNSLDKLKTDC

[33] = target: Serine/threonine-protein kinase Chk1 (Homo sapiens, UniProt O14757);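 further: measured as one member of a kinome-wide kinase profiling panel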
[34] = target: Tyrosine-protein kinase BTK (Homo sapiens, UniProt Q06187)
[35] = target: Mitogen-activated protein kinase 14 (Homo sapiens, UniProt Q16539);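 further: part of a kinome-wide panel, MAPK14 entry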
[36] = target: Tyrosine-protein kinase Fyn (Homo sapiens, UniProt P06241)
[37] = target: ALK tyrosine kinase receptor (Homo sapiens, UniProt Q9UM73);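 further: ALK tested as one member of a kinase panel screen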
[38] = target: Tyrosine-protein kinase ABL1 (Homo sapiens, UniProt P00519)
[39] = target: Tyrosine-protein kinase receptor TYRO3 (Homo sapiens, UniProt Q06418);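 further: TYRO3 value obtained as one member of a kinome-wide profiling panel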
[40] = target: G protein-coupled receptor kinase 5 (Homo sapiens, UniProt P34947); assay: Navigating the Kinome. Panel member name: GPRK5
[41] = target: Cyclin-dependent kinase 7 (Homo sapiens, UniProt P50613);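 further: value comes from a kinome-wide kinase profiling panel in which CDK7 is one member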
[42] = target: Leukocyte tyrosine kinase receptor (Homo sapiens, UniProt P29376); assay: Navigating the Kinome. Panel member name: LTK
[43] = target: Hepatocyte growth factor receptor (Homo sapiens, UniProt P08581);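 further: kinase panel profiling across the kinome, with MET as the panel member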
[44] = target: Vascular endothelial growth factor receptor 2 (Homo sapiens, UniProt P35968)
[45] = target: BDNF/NT-3 growth factors receptor (Homo sapiens, UniProt Q16620);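 further: NTRK2 measured as one member of a broad kinome-wide kinase profiling panel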
[46] = target: Activated CDC42 kinase 1 (Homo sapiens, UniProt Q07912); assay: Navigating the Kinome. Panel member name: ACK1
[47] = target: Cyclin-dependent kinase 8 (Homo sapiens, UniProt P49336); assay: Navigating the Kinome. Panel member name: CDK8
Cyclin-dependent kinase 8, sequence (P49336 whole entry): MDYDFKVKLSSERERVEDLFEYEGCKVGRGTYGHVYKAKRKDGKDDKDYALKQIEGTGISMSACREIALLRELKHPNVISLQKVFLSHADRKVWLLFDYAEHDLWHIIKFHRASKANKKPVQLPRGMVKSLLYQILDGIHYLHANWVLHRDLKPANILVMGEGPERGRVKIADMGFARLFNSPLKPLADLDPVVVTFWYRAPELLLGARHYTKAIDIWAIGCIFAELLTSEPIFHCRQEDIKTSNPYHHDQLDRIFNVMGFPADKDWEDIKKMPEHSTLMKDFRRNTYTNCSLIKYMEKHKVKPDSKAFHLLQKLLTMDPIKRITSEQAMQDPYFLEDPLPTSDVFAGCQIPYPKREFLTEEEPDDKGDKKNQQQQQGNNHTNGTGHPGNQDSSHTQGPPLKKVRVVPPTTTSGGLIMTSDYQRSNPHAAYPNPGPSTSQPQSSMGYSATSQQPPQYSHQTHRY

[48] = target: Serine/threonine-protein kinase D3 (Homo sapiens, UniProt O94806);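 further: determined within a kinase panel screen, with PRKCN as the panel member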
[49] = target: Serine/threonine-protein kinase TBK1 (Homo sapiens, UniProt Q9UHD2); assay: Navigating the Kinome. Panel member name: TBK1
[50] = target: Tyrosine-protein kinase JAK2 (Homo sapiens, UniProt O60674);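 further: JAK2 tested as one member of a kinase panel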
[51] = target: Mitogen-activated protein kinase 8 (Homo sapiens, UniProt P45983);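 further: value comes from one member of a kinome-wide kinase profiling panel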
[52] = target: Serine/threonine-protein kinase PAK 4 (Homo sapiens, UniProt O96013);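 further: value obtained within a kinome profiling panel in which PAK4 was one of the panel members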
[53] = target: Fibroblast growth factor receptor 1 (Homo sapiens, UniProt P11362)
Fibroblast growth factor receptor 1, sequence (P11362 whole entry): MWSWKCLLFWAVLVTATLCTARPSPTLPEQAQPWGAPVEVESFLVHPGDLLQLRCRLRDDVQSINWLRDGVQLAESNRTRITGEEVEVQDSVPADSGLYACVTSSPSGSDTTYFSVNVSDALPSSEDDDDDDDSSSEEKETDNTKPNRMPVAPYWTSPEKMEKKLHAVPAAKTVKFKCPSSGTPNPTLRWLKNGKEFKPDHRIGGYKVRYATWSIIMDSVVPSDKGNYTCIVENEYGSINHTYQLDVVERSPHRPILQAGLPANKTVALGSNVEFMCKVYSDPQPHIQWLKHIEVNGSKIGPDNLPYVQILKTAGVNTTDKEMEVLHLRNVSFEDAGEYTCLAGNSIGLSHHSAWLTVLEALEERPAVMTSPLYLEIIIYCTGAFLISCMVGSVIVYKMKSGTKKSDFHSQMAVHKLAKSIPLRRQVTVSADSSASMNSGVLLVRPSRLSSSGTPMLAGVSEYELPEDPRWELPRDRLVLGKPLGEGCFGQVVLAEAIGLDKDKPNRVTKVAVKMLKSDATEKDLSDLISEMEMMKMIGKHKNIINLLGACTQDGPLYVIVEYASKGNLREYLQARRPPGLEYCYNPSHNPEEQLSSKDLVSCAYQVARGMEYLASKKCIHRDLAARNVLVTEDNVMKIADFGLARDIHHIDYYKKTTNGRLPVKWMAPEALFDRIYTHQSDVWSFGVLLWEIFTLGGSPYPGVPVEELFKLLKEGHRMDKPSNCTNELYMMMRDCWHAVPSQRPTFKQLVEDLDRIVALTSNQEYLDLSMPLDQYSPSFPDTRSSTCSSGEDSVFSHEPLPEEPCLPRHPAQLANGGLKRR

[54] = target: Dual specificity protein kinase CLK4 (Homo sapiens, UniProt Q9HAZ1)
[55] = target: Dual specificity mitogen-activated protein kinase kinase 1 (Homo sapiens, UniProt Q02750); assay: Navigating the Kinome. Panel member name: MAP2K1
[56] = target: Calcium/calmodulin-dependent protein kinase type II subunit alpha (Homo sapiens, UniProt Q9UQM7); assay: Navigating the Kinome. Panel member name: CAMK2A
[57] = target: Tyrosine-protein kinase JAK3 (Homo sapiens, UniProt P52333)
[58] = target: Serine/threonine-protein kinase PLK1 (Homo sapiens, UniProt P53350);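 further: PLK1 measured as one member of a kinome-wide profiling panel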
[59] = target: MAP kinase-activated protein kinase 2 (Homo sapiens, UniProt P49137);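 further: measured as one member of a kinome-wide kinase panel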
[60] = target: Cyclin-dependent kinase 1 (Homo sapiens, UniProt P06493);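 further: Kinome-wide panel profiling, with the target listed as panel member CDC2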
Cyclin-dependent kinase 1, sequence (P06493 whole entry): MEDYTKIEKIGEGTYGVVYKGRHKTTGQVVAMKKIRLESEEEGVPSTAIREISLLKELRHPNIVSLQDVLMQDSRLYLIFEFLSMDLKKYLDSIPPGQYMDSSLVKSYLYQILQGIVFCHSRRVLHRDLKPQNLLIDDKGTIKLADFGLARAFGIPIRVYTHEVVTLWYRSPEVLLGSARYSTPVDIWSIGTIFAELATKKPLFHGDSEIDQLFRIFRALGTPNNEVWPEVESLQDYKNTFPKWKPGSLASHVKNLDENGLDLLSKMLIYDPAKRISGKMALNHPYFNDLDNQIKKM

[61] = target: Melanin-concentrating hormone receptor 1 (Homo sapiens, UniProt Q99705); assay: Late-stage fluorescence-based counterscreen for antagonists of the G-protein coupled receptor 7 (GPR7): cell-based dose response assay to identify antagonists of the melanin-concentrating hormone receptor 1 (MCHR1) Set 6.
Melanin-concentrating hormone receptor 1, sequence (Q99705 whole entry): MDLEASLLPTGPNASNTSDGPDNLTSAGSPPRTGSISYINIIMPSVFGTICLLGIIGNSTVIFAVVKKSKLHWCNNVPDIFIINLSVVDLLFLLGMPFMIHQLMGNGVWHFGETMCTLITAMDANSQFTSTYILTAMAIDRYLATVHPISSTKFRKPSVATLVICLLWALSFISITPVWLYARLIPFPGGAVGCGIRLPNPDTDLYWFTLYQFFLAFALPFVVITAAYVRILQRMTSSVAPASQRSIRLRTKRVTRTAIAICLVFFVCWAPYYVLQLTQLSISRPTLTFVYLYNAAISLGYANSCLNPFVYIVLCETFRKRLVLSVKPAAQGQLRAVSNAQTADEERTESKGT

[62] = target: Neuropeptides B/W receptor type 1 (Homo sapiens, UniProt P48145); assay: GPR7 antagonist potency, late-stage follow-up, cell-based, fluorescence, dose response, set 6 (AID 588583)

## COc1ccccc1-c1ccnc(Nc2cccc(S(C)(=O)=O)c2)n1
[1]
  Ki: > 3.98 µM (inactive)
[2]
  Ki: > 3.16 µM (inactive)
[3]
  Ki: > 1.26 µM (inactive)
[4]
  Ki: 0.794 µM (active)
[5]
  Ki: > 3.98 µM (inactive)
[6]
  Ki: 2.51 µM (active)
[7]
  Ki: > 2.51 µM (inactive)
[8]
  Ki: 2.51 µM (active)
[9]
  Ki: > 3.16 µM (inactive)
[10]
  Ki: > 6.31 µM (inactive)
[11]
  Ki: > 3.98 µM (inactive)
[12]
  Ki: 0.398 µM (active)
[13]
  Ki: > 3.16 µM (inactive)
[14]
  Ki: > 2.51 µM (inactive)
[15]
  Ki: > 3.16 µM (inactive)
[16]
  Ki: > 5.01 µM (inactive)
[17]
  Ki: 3.98 µM (active)
[18]
  Ki: 0.501 µM (active)
[19]
  Ki: > 3.16 µM (inactive)
[20]
  Ki: 3.16 µM (active)
[21]
  Ki: 0.631 µM (active)
[22]
  Ki: > 3.16 µM (inactive)
[23]
  Ki: > 2.51 µM (inactive)
[24]
  Ki: > 2 µM (inactive)
[25]
  Ki: 0.0316 µM (active)
[26]
  Ki: > 2.51 µM (inactive)
[27]
  Ki: > 2.51 µM (inactive)
[28]
  Ki: 0.316 µM (active)
[29]
  Ki: 0.398 µM (active)
[30]
  Ki: 0.794 µM (active)
[31]
  Ki: 2.51 µM (active)
[32]
  Ki: 0.2 µM (active)
[33]
  Ki: > 3.16 µM (inactive)
[34]
  Ki: > 6.31 µM (inactive)
[35]
  Ki: > 3.98 µM (inactive)
[36]
  Ki: > 6.31 µM (inactive)
[37]
  Ki: > 6.31 µM (inactive)
[38]
  Ki: 0.501 µM (active)
[39]
  Ki: 0.501 µM (active)
[40]
  Ki: > 3.98 µM (inactive)
[41]
  Ki: > 3.98 µM (inactive)
[42]
  Ki: > 2.51 µM (inactive)
[43]
  Ki: 2.51 µM (active)
[44]
  Ki: 1 µM (active)
[45]
  Ki: 3.98 µM (active)
[46]
  Ki: > 3.98 µM (inactive)
[47]
  Ki: > 3.98 µM (inactive)
[48]
  Ki: > 3.98 µM (inactive)
[49]
  Ki: > 3.16 µM (inactive)
[50]
  Ki: > 2.51 µM (inactive)
[51]
  Ki: 0.794 µM (active)
[52]
  Ki: > 5.01 µM (inactive)
[53]
  Ki: 2.51 µM (active)
[54]
  Ki: 0.501 µM (active)
[55]
  Ki: > 3.16 µM (inactive)
[56]
  Ki: 1 µM (active)
[57]
  Ki: > 5.01 µM (inactive)

## Cc1cccc(CNC(=O)c2cnn3c(-c4ccccc4)ccnc23)c1C
[4]
  Ki: 1.58 µM (active)
[58]
  Ki: 7.94 µM (active)
[10]
  Ki: 5.01 µM (active)
[59]
  Ki: 2.51 µM (active)
[28]
  Ki: 7.94 µM (active)
[60]
  Ki: 2.51 µM (active)

## COc1ccc(Oc2c(Cl)cnn(CC(=O)N(c3ccccc3)C(C)C)c2=O)cc1
[61]
  IC50: 3.17 µM (active)
[62]
  IC50: 3.17 µM (active)
